Read-outs that look alike come from different tables or passages of the source.
Columns and labels:
HCV 1b-Con1 replicon = HCV 1b-Con1 replicon assay in the presence of 5% FBS (luciferase reporter); assay type: cell-based; settings: Hepatitis C virus
HCV genotype 2b replicon = HCV genotype 2b replicon assay; assay type: cell-based, Hepatitis C virus; settings: Hepatitis C virus, absence of human plasma; Table 5; read-out: EC50 (nM, in the absence of HP) 2b
Description: (§1) [drawing 14] employs a biphenyl linker between the imidazole moieties. See WO2008021927(BMS). The EC50 values of BMS-790052 against different HCV genotypes were shown by Nettles et al., “BMS-790052 is a First-in-class Potent Hepatitis C Virus (HCV) NS5A Inhibitor for Patients with Chronic HCV Infection: Results from a Proof-of-concept Study”, 59th Annual Meeting of the American Association for the Study of Liver Diseases (Oct. 31-Nov. 1, 2008, San Francisco, Calif.; www.natap.org/2008/AASLD/AASLD_06.htm). […] See also Gao et al., NATURE 465:96-100 (2010). The compounds in Table 1 use different linkers between the imidazole moieties. Table 1 depicts the EC50 values of these compounds when tested using respective replicon assays in the presence of 5% (v/v) fetal bovine serum (FBS).

HCV genotype 3a replicon = HCV genotype 3a replicon assay; assay type: cell-based, Hepatitis C virus; settings: Hepatitis C virus, read-out: EC50 (nM, in the absence of HP) 3a, absence of human plasma; Table 5
Description: as §1

HCV genotype 1a replicon = HCV genotype 1a replicon assay; assay type: cell-based, Hepatitis C virus; settings: Hepatitis C virus
Description: as §1
(§2) Table 2 compares compounds containing unsubstituted benzimidazole to those containing halo-substituted benzimidazole. Anti-viral activities were assessed using wild-type replicons (e.g., 1b WT or 1a WT) as well as replicons containing specific NS5A mutations (e.g., 1b L28T, 1b Y93H, 1a L31V, 1a Y93C, 1a M28V, or 1a Q30E) in the absence of FBS.
(§3) Table 3 compares compounds with different linkers between the benzimidazole moieties. Anti-viral activities were determined using 1a and 1b replicon assays. “HP” refers to human plasma. […] As compared to the phenyl linker

HCV genotype 4a replicon = HCV genotype 4a replicon assay; assay type: cell-based, Hepatitis C virus; settings: Hepatitis C virus, absence of human plasma; Table 5; read-out: EC50 (nM, in the absence of HP) 4a
Description: as §1

HCV genotype 1b replicon = HCV genotype 1b replicon assay; assay type: cell-based, Hepatitis C virus; settings: Hepatitis C virus
Description: as §1, §2, §3

HCV genotype 2a replicon = HCV genotype 2a replicon assay; assay type: cell-based, Hepatitis C virus; settings: Hepatitis C virus, absence of human plasma; Table 5; read-out: EC50 (nM, in the absence of HP) 2a
Description: as §1

[1] = 40% human plasma, Table 5, read-out: EC50 (nM, in the presence of 40% HP) 1a
[2] = 40% human plasma, Table 5, read-out: EC50 (nM, in the presence of 40% HP) 1b

COC(=O)N[C@H](C(=O)N1CCC[C@H]1c1nc2cc(C3CC[C@H](c4ccc5[nH]c([C@@H]6CCCN6C(=O)[C@@H](NC(=O)OC)C6CCOCC6)nc5c4)N3c3cc(F)c(N4CCCCC4)c(F)c3)ccc2[nH]1)C1CCOCC1 (stereo in doubt) [Example 3.18, dimethyl({(2R,5R)-1-[3,5-difluoro-4-(piperidin-1-yl)phenyl]pyrrolidine-2,5-diyl}bis{1H-benzimidazole-5,2-diyl(2S)pyrrolidine-2,1-diyl[(1S)-2-oxo-1-(tetrahydro-2H-pyran-4-yl)ethane-2,1-diyl]})biscarbamate]
EC50 (HCV 1b-Con1 replicon): < 0.1 nM

COC(=O)N[C@H](C(=O)N1C(c2nc3cc([C@H]4CCC(c5ccc6[nH]c([C@@H]7C[C@@H]8CCC[C@@H]8N7C(=O)[C@@H](NC(=O)OC)C(C)C)nc6c5)N4c4cc(F)c(N5CCCCC5)c(F)c4)ccc3[nH]2)C[C@@H]2CCC[C@@H]21)C(C)C (stereo partly shown) [Example 4.18]
EC50 (HCV 1b-Con1 replicon): < 0.1 nM

COC(=O)N[C@H](C(=O)N1CCC[C@H]1c1nc2cc([C@H]3CC[C@H](c4ccc5[nH]c([C@@H]6CCCN6C(=O)[C@@H](NC(=O)OC)C(C)C)nc5c4)N3c3ccc(N4CCCCC4)c(C(F)(F)F)c3)ccc2[nH]1)C(C)C
EC50 (HCV genotype 2b replicon): ≤ 0.05 nM | EC50 (HCV genotype 3a replicon): ≤ 0.05 nM | EC50 (HCV genotype 1a replicon; [1]): 0.6 nM | EC50 (HCV genotype 4a replicon): ≤ 0.05 nM | EC50 (HCV genotype 1b replicon; [2]): 0.3 nM | EC50 (HCV genotype 2a replicon): 0.5 nM

COC(=O)N[C@H](C(=O)N1CCC[C@H]1c1nc2ccc([C@H]3CC[C@H](c4ccc5nc([C@@H]6CCCN6C(=O)[C@@H](NC(=O)OC)C(C)C)[nH]c5c4)N3c3ccc(C4CC4)cc3F)cc2[nH]1)C(C)C
EC50 (HCV genotype 2b replicon): ≤ 0.05 nM | EC50 (HCV genotype 3a replicon): ≤ 0.05 nM | EC50 (HCV genotype 1a replicon; [1]): 0.1 nM | EC50 (HCV genotype 4a replicon): ≤ 0.05 nM | EC50 (HCV genotype 1b replicon; [2]): 0.2 nM | EC50 (HCV genotype 2a replicon): ≤ 0.05 nM

COC(=O)N[C@H](C(=O)N1CCC[C@H]1C(=O)Nc1ccc([C@@H]2CC[C@@H](c3ccc(NC(=O)[C@@H]4CCCN4C(=O)[C@@H](NC(=O)OC)C(C)C)cc3)N2)cc1)C(C)C
EC50 (HCV genotype 1a replicon; 5% FBS and 40% human plasma, Table 4, read-out: EC50 (nM, in the presence of 5% FBS and 40% HP) 1a): 1200 nM | EC50 (HCV genotype 1a replicon; 5% FBS, Table 4, read-out: EC50 (nM, in the presence of 5% FBS) 1a): 290 nM | EC50 (HCV genotype 1b replicon; 5% FBS and 40% human plasma, Table 4, read-out: EC50 (nM, in the presence of 5% FBS and 40% HP) 1b): 2400 nM | EC50 (HCV genotype 1b replicon; 5% FBS, Table 4, read-out: EC50 (nM, in the presence of 5% FBS) 1b): 320 nM

COC(=O)N[C@H](C(=O)N1CCC[C@H]1c1nc2cc([C@H]3CC[C@H](c4ccc5[nH]c([C@@H]6CCCN6C(=O)[C@@H](NC(=O)OC)C(C)C)nc5c4)N3c3ccc(N4CCCCC4=O)cc3)ccc2[nH]1)C(C)C [Example 1.2]
EC50 (HCV 1b-Con1 replicon): > 10000 nM

COC(=O)N[C@H](C(=O)N1CCC[C@H]1c1nc2cc([C@H]3CC[C@H](c4ccc5[nH]c([C@@H]6CCCN6C(=O)[C@@H](NC(=O)OC)C(C)C)nc5c4)N3c3ccc(N4CCCCC4)c(C#N)c3)ccc2[nH]1)C(C)C
EC50 (HCV genotype 2b replicon): ≤ 0.05 nM | EC50 (HCV genotype 3a replicon): ≤ 0.05 nM | EC50 (HCV genotype 1a replicon; [1]): 0.4 nM | EC50 (HCV genotype 4a replicon): ≤ 0.05 nM | EC50 (HCV genotype 1b replicon; [2]): 0.5 nM | EC50 (HCV genotype 2a replicon): 0.07 nM

COC(=O)N[C@H](C(=O)N1CCC[C@H]1c1nc2cc([C@H]3CC[C@H](c4ccc5[nH]c([C@@H]6CCCN6C(=O)[C@@H](NC(=O)OC)C(C)C)nc5c4)N3c3ccc(C(C)(C)C)cc3)ccc2[nH]1)C(C)C
EC50 (HCV genotype 2b replicon): ≤ 0.05 nM | EC50 (HCV genotype 3a replicon): ≤ 0.05 nM | EC50 (HCV genotype 1a replicon; [1]): 0.1 nM | EC50 (HCV genotype 4a replicon): ≤ 0.05 nM | EC50 (HCV genotype 1b replicon; [2]): 0.3 nM | EC50 (HCV genotype 2a replicon): 0.2 nM

COC(=O)N[C@H](C(=O)N1CCC[C@H]1c1nc2cc([C@H]3CC[C@H](c4ccc5[nH]c([C@@H]6CCCN6C(=O)[C@@H](NC(=O)OC)C(C)C)nc5c4)N3c3ccc(C4CC4)cc3)ccc2[nH]1)C(C)C
EC50 (HCV genotype 2b replicon): ≤ 0.05 nM | EC50 (HCV genotype 3a replicon): ≤ 0.05 nM | EC50 (HCV genotype 1a replicon; [1]): 0.1 nM | EC50 (HCV genotype 4a replicon): ≤ 0.05 nM | EC50 (HCV genotype 1b replicon; [2]): 0.3 nM | EC50 (HCV genotype 2a replicon): ≤ 0.05 nM

From patent US9586978B2, “Anti-viral compounds” (AbbVie Inc., priority 2009, dated 2017)
